Experimental data taken from US20090131313A1, “LKKTET AND/OR LKKTNT PEPTIDE COMPOSITIONS AND METHODS FOR TREATING OR PREVENTING TISSUE DETERIORATION, INJURY OR DAMAGE” (REGENERX BIOPHARMACEUTICALS, INC., priority 2005, published 2009).

Tests used:
[1] = system: Human corneal epithelial cells; assay: annexin-based cell death (apoptosis) assay
Procedure: (§1) Human corneal epithelial cells at approximately 80% confluence were treated with 0%, 0.001%, 0.01%, or 0.1% BAK for 15 minutes. After 3 and 24 hours of recovery in culture medium, cell proliferation was measured using a calorimetric BrdU incorporation assay. Apoptosis was measured using a calorimetric annexin-based cell death assay. […] To further assess the ability of Tb4 to prevent apoptosis, corneal epithelial cells were treated with 0.01% BAK±Tβ4 over a 5 day time course.

[2] = system: Human corneal epithelial cells; assay: BrdU incorporation cell proliferation assay; type: cell-based; details: 1 mcg/ml Tβ4, 3 and 24 hour time points
Procedure: as §1

| Substance | corneal epithelial cell apoptosis compared to control ([1]; 0.001%, 0.01% or 0.1% BAK for 15 minutes, 3 and 24 hours recovery) | cell proliferation of BAK-treated cells in the presence of Tβ4 [2] | apoptosis of BAK-treated cells in the presence of Tβ4 ([1]; 1 mcg/ml Tβ4, BAK-treated cells, 3 and 24 hour time points) | apoptosis compared to cells cultured in medium alone ([1]; Tβ4-treated cells, 5 days in culture) |
| --- | --- | --- | --- | --- |
| benzalkonium chloride [BAK, reference compound] | increased |  |  |  |
| Thymosin beta 4 (SDKPDMAEIEKFDKSKLKKTETQEKNPLPSKETIEQEKQAGES; Thymosin beta-4; UniProt P62328 2-44, looked up) [Tβ4] |  | not promoted | not inhibited | decreased apoptosis |
